Source: PubChem BioAssay (NCI)
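Exposure lasted 48 hours, with cells grown in 96-well plates and compounds tested at five concentrations. Here, GI50 denotes the concentration required for 50% inhibition of growth. TGI denotes the concentration required for complete inhibition of growth.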

Tests used:
Test in all cases: NCI-60 cell line screen, 48 h
[1] = test system: 786-0 renal
[2] = test system: A498 renal
[3] = test system: A549 NSCLC
[4] = test system: ACHN renal
[5] = test system: BT-549 breast
[6] = test system: CAKI-1 renal
[7] = test system: CCRF-CEM leukemia
[8] = test system: COLO 205 colon
[9] = test system: DU-145 prostate
[10] = test system: EKVX NSCLC
[11] = test system: HCC-2998 colon
[12] = test system: HCT-116 colon
[13] = test system: HCT-15 colon
[14] = test system: HL-60(TB) leukemia
[15] = test system: HOP-62 NSCLC
[16] = test system: HOP-92 NSCLC
[17] = test system: HS 578T breast
[18] = test system: HT29 colon
[19] = test system: IGROV1 ovarian
[20] = test system: K-562 leukemia
[21] = test system: KM12 colon
[22] = test system: LOX IMVI melanoma
[23] = test system: M14 melanoma
[24] = test system: MALME-3M melanoma
[25] = test system: MCF7 breast
[26] = test system: MDA-MB-231 breast
[27] = test system: MDA-MB-435
[28] = test system: MOLT-4 leukemia
[29] = test system: NCI-H226 lung
[30] = test system: NCI-H23 lung
[31] = test system: NCI-H460 lung
[32] = test system: NCI-H522 lung
[33] = test system: NCI/ADR-RES ovarian
[34] = test system: OVCAR-3 ovarian
[35] = test system: OVCAR-4 ovarian
[36] = test system: OVCAR-5 ovarian
[37] = test system: OVCAR-8 ovarian
[38] = test system: PC-3 prostate
[39] = test system: RPMI-8226 leukemia
[40] = test system: RXF 393 renal
[41] = test system: SF-268 CNS
[42] = test system: SF-295 CNS
[43] = test system: SF-539 CNS
[44] = test system: SK-MEL-2 melanoma
[45] = test system: SK-MEL-28 melanoma
[46] = test system: SK-MEL-5 melanoma
[47] = test system: SK-OV-3 ovarian
[48] = test system: SN12C renal
[49] = test system: SNB-19 CNS
[50] = test system: SNB-75 CNS
[51] = test system: SR leukemia
[52] = test system: SW-620 colon
[53] = test system: T-47D breast
[54] = test system: TK-10 renal
[55] = test system: UACC-257 melanoma
[56] = test system: UACC-62 melanoma
[57] = test system: UO-31 renal

With `Cc1cc(OCc2n[nH]c(=S)n2/N=C/c2ccc(F)cc2)ccc1Cl` the GI50 [1] was 29.2 µM, the TGI [1] was 87.2 µM and the GI50 [2] was 25.1 µM. The TGI [2] was 68.3 µM, the GI50 [3] was 26.6 µM and the TGI [3] was 68.6 µM. The GI50 [4] was 31.2 µM, the TGI [4] was 87.5 µM and the GI50 [5] was 48 µM. For the same compound, the TGI [5] was greater than 100 µM, the GI50 [6] was 42.8 µM and the TGI [6] was greater than 100 µM. The GI50 [7] was 25.7 µM, the TGI [7] was 70.2 µM and the GI50 [8] was 15.9 µM. It also gave a TGI [8] of 35.8 µM, a GI50 [9] of 56.7 µM and a TGI [9] greater than 100 µM. For the same compound, the GI50 [10] was 64.4 µM, the TGI [10] was greater than 100 µM and the GI50 [11] was 20.6 µM. It also gave a TGI [11] of 43.7 µM, a GI50 [12] of 23.3 µM and a TGI [12] of 53.1 µM. It also gave a GI50 [13] of 19.2 µM, a TGI [13] of 47.2 µM and a GI50 [14] of 18.3 µM. It also gave a TGI [14] of 47.2 µM, a GI50 [15] of 81 µM and a TGI [15] greater than 100 µM. For the same compound, the GI50 [16] was 32.6 µM, the TGI [16] was greater than 100 µM and the GI50 [17] was 56.6 µM. It also gave a TGI [17] greater than 100 µM, a GI50 [18] of 18.9 µM and a TGI [18] of 37.7 µM. It also gave a GI50 [19] of 25.4 µM, a TGI [19] of 82.3 µM and a GI50 [20] of 20.8 µM. It also gave a TGI [20] of 54 µM, a GI50 [21] of 22.1 µM and a TGI [21] of 53.8 µM. It also gave a GI50 [22] of 16.1 µM, a TGI [22] of 32.4 µM and a GI50 [23] of 29 µM. The TGI [23] was greater than 100 µM, the GI50 [24] was 25.1 µM and the TGI [24] was 56.5 µM. The GI50 [25] was 33.1 µM, the TGI [25] was greater than 100 µM and the GI50 [26] was 23.4 µM. The TGI [26] was 62.5 µM, the GI50 [27] was 25.9 µM and the TGI [27] was greater than 100 µM. For the same compound, the GI50 [28] was 19.4 µM, the TGI [28] was 51 µM and the GI50 [29] was 22.4 µM. The TGI [29] was 54.7 µM, the GI50 [30] was 29.8 µM and the TGI [30] was 94 µM. For the same compound, the GI50 [31] was 28.6 µM, the TGI [31] was greater than 100 µM and the GI50 [32] was 21.7 µM. The TGI [32] was 54.8 µM, the GI50 [33] was 29.3 µM and the TGI [33] was 87.3 µM. The GI50 [34] was 22.9 µM, the TGI [34] was 49.4 µM and the GI50 [35] was 25.4 µM. The TGI [35] was 55.4 µM, the GI50 [36] was greater than 100 µM and the TGI [36] was greater than 100 µM. For the same compound, the GI50 [37] was 38.8 µM, the TGI [37] was greater than 100 µM and the GI50 [38] was 29.2 µM. The TGI [38] was greater than 100 µM, the GI50 [39] was 16.7 µM and the TGI [39] was 40.1 µM. It also gave a GI50 [40] of 22.4 µM, a TGI [40] of 46.8 µM and a GI50 [41] of 30 µM. The TGI [41] was 86.7 µM, the GI50 [42] was 30.1 µM and the TGI [42] was greater than 100 µM. For the same compound, the GI50 [43] was 25.8 µM, the TGI [43] was 57.4 µM and the GI50 [44] was 23.1 µM. The TGI [44] was 57.2 µM, the GI50 [45] was 26.7 µM and the TGI [45] was 74.2 µM. The GI50 [46] was 17.9 µM, the TGI [46] was 35 µM and the GI50 [47] was 31.7 µM. For the same compound, the TGI [47] was 82.3 µM, the GI50 [48] was 19.6 µM and the TGI [48] was 37.1 µM. It also gave a GI50 [49] of 27.8 µM, a TGI [49] of 83.8 µM and a GI50 [50] of 22.7 µM. For the same compound, the TGI [50] was 69.2 µM, the GI50 [51] was 18.5 µM and the TGI [51] was 39.7 µM. The GI50 [52] was 34.5 µM, the TGI [52] was greater than 100 µM and the GI50 [53] was 20.5 µM. It also gave a TGI [53] of 57.3 µM, a GI50 [54] of 19.1 µM and a TGI [54] of 58 µM. For the same compound, the GI50 [55] was 26.4 µM, the TGI [55] was 62 µM and the GI50 [56] was 20.1 µM. It also gave a TGI [56] of 41.8 µM, a GI50 [57] of 29.5 µM and a TGI [57] of 91.6 µM.
